# Test results: patent US12600725B2 (Memorial Sloan-Kettering Cancer Center, priority 2013, dated 2026)
# “Also recorded” adds a separate entry of the source. Read-outs that look alike come from different tables or passages of the source.
# Assays:
# [1] = system: Toll-like receptor 9 (TLR9) trafficking in HEK293 cells transfected with HA-TLR9; assay: TLR9-trafficking assay; format: cell-based, human; settings: 24 h treatment
# Method: TLR^9-trafficking assay (Yang, Y. et al. Heat shock protein gp96 is a master chaperone for toll-like receptors and is important in the innate function of macrophages. Immunity 26, 215-26 (2007)). HEK 293T cells were transfected with pUNO-hTLR9-HA (Invivogen) using X-tremgene HP (Roche) according to the manufacturer's instructions. At 24 hrs post-transfection, cells were split onto cell culture chamber slides (Lab-Tek). Cells were then treated for 24 hrs with indicated compound at varying concentrations. After treatment, cells were fixed for 20 min in 4% paraformaldehyde in PBS, permeabilized with 0.1% Triton-X 100 in PBS for 10 min, blocked with 3% BSA in PBS for 30 min, followed by staining for 1 hr with an anti-HA antibody (Abcam, ab9110) or a normal rabbit IgG. Cells were washed with PBS, stained with an anti-rabbit-Cy3 antibody (Invitrogen) and finally mounted in the dark at 4° C. with Prolong Gold Antifade reagent (with DAPI). Cells were visualized under a confocal microscope (Leica Upright Confocal SP5). Fluorescence intensity was quantified using MetaMorph Microscopy Automation and Image Analysis Software (Molecular Devices Inc.) and normalized to the cell number.
# [2] = system: Hsp70 induction and AKT degradation (cytosolic Hsp90 hallmarks) in C2C12 cells; assay: Western blot of Hsp70 induction and AKT degradation in C2C12 cells; format: cell-based, mouse; settings: 24 hrs
# Method: Cell fractionation and immunoblotting. Cells were either treated with DMSO (vehicle) or indicated compounds for 24 hr and lysed in RIPA buffer (50 mM Tris-HCl, pH 7.4, 150 mM NaCl, 0.5% sodium deoxycholate and 0.5% NP40) supplemented with cocktail protease inhibitors (Roche) to produce whole cell lysates. Lysates for cytosol and membrane fractions were harvested using ProteoExtract Subcellular Proteome Extraction Kit (Calbiochem) following the manufacturer's instructions. Protein concentrations were determined using BCA kit (Pierce) according to the manufacturer's instructions. […] After washing off the excess antibodies, the membranes were incubated with the corresponding horseradish peroxidase (HRP) conjugated secondary antibody. Blots were visualized by autoradiography using the Enhanced Chemiluminescence Detection System (GE Healthcare) according to manufacturer's instructions. For all gels 3-actin was used as a protein loading control.
# [3] = system: HER2 at the plasma membrane of SKBr3 cells; assay: Immunofluorescence of HER2 architecture at the plasma membrane; format: cell-based
# Method: We next investigated the biological significance of the unique association of HER^2 with Grp94 at the plasma membrane of SKBr3 cells. Because the Grp94 inhibitors described here target the ATP-binding pocket of Grp94, they affect Grp94 chaperone activity. Therefore we hypothesized that Grp94 may act on HER^2 at the plasma membrane to stabilize the protein and to regulate its function.
# Immunofluorescence. Cells were seeded and grown onto culture slides (BD Falcon) for 24 hrs. After washing with cold PBS, cells were fixed by treating at 4° C. for 20 min with 4% paraformaldehyde in PBS, permeabilized with 0.1% Triton X-100 in PBS containing 10% FBS for 10 min, and blocked with 2% BSA for 1 hr. After washing for four times with PBS, primary antibodies were added onto the chambers and cell were incubated overnight at 4° C., washed again with PBS followed by incubation with the secondary antibody for 1 hr at room temperature. Cell were washed and then mounted and observed under microscope (Leica Upright Confocal SP5). The primary antibodies used in the assay are against: HER^2 (Zymed, 28004), Grp94 (Stressgen, SPA-850), Hsp70 (Stressgen, SPA-810), LAMP1-FITC (Abcam, ab25406), EEA1 (Abcam, ab70521), 58K Golgi-FITC (Abcam, ab27043) and Calnexin (BD, 610523).
# OE19 cells = assay: Cell viability assessment (CellTiter-Glo); format: cell-based
# in vivo = assay: in vivo; parameters: species or system mouse
# [4] = system: downstream EGFR signaling in MDA-MB-468 tumors; assay: PD analysis of tumors (Western blot); format: in vivo, mouse; settings: 75 mg/kg ip
# Method: For this purpose we used mice bearing MDA-MB-468 tumors (a triple-negative breast tumor with EGFR-overexpression). Because of the specific affinity of the provided Grp94 inhibitors for tumor Grp94, we performed PK/PD studies that are tailored for this purpose. In this PK/PD study we incorporated two time points, a 2 h and a 24 h time of sacrifice post-administration. The early time point is incorporated to test the biodistribution of the agent to the site of its action, the tumor; PU-WS13 was readily distributed to tumor mass with -850 μM noted in tumor at 2 h versus 100 μM in the plasma (FIG. 25A). […] The concentration of PU-WS13 in the tumor at 24 h post-administration of single dose of 75 mg/kg was 0.5 μM. […] We also analyzed the potential suppression by PU-WS13 of normal Grp94 functions. A “housekeeping” function for Grp94 was identified using a conditional knock-out mouse model; that study found a role for Grp94 in normal GI cells, i.e. regulation of the Wnt receptor LRP6 (Liu et al., Proc Natl Acad Sci USA. 2013 Apr. 23; 110(17):6877-82). […]
# The other half of tumor tissues were evaluated for changes in EGFR and other PD markers as established in our laboratory. […] After quantifying the protein concentrations by BCA, 25-100ug proteins were loaded into SDS-PAGE and subjected to immunoblotting.
structure (smiles),measurement,setting,value
CC(C)NCCCn1c(Sc2cc(Cl)cc(Cl)c2)nc2c(N)ncnc21 [PU-WS13],TLR9 trafficking,[1],inhibits TLR^9 trafficking
same,AKT degradation,[2],lack of Hsp70 induction and AKT degradation; also recorded: has no effect
same,Hsp70 induction,[2],lack of Hsp70 induction; also recorded: has no effect
same,effect on HER2 architecture at the plasma membrane,[3],disruption of the circular architecture of HER^2 at the plasma membrane
same,sensitivity to Grp94 inhibition,OE19 cells,highly susceptible
same,AUC0-24h for stomach relative to tumor AUC0-24h,in vivo; 75 mg/kg ip,1.4 fold
same,AUC0-24h for the large intestine relative to tumor AUC0-24h,in vivo; 75 mg/kg ip,2 fold
same,concentration at 2 h,"in vivo; female, nu/nu athymic, mouse, plasma, intraperitoneal, 75 mg/kg ip, read-out: PU-WS13 level in the plasma",100 µM
same,AUC(0-t),"in vivo; female, nu/nu athymic, mouse, plasma, 75 mg/kg ip, read-out: AUC0-24 h plasma",1260 µM·h
same,concentration at 2 h,"in vivo; female, nu/nu athymic, mouse, tumor, intraperitoneal, 75 mg/kg ip, read-out: PU-WS13 level in tumor",~850 µM
same,concentration at 24 h,"in vivo; female, nu/nu athymic, mouse, tumor, intraperitoneal, single dose of 75 mg/kg, 24 h post-administration",0.5 µM
same,AUC(0-t),"in vivo; female, nu/nu athymic, mouse, tumor, 75 mg/kg ip, read-out: AUC0-24 h tumor",9130 µM·h
same,PD effect in tumor (p-AKT and p-ERK inhibition),[4],partial suppression of downstream EGFR signaling
